Results: BindingDB's records for doi:10.1021/bi401043w (Mayo Clinic, 2013)

target: T1, Acetylcholinesterase (Mus musculus, UniProt P21836); assay: Assay of Substrate Hydrolysis; details: pH 7; 25 °C
T1 sequence (P21836 whole entry): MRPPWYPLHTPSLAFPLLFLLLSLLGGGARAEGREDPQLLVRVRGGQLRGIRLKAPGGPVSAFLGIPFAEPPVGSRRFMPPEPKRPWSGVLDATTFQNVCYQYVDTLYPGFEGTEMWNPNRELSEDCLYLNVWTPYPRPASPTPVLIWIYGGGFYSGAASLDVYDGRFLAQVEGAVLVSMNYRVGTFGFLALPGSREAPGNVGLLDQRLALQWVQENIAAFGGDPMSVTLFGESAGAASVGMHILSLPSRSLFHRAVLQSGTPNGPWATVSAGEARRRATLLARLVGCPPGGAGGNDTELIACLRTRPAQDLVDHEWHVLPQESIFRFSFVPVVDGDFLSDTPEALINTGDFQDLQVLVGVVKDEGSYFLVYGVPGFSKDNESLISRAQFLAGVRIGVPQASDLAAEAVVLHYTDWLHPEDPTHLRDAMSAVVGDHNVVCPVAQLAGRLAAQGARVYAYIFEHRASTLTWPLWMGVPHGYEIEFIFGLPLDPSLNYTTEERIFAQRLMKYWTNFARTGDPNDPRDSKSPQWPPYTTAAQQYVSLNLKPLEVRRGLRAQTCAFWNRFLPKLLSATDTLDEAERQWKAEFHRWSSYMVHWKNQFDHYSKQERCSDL
Experimental: (§1) Assays were conducted at 25 C in 20 mM sodium phosphate buffer (pH 7.0) and 0.01% bovine serum albumin unless otherwise noted. AChE concentrations were varied to optimize measured rates.

**Q.** With `C[n+]1c2ccccc2cc2ccccc21` [N-methylacridinium] as the compound, how does the Ki read?
**A.** 310 nM

**Q.** Which Ki does the source give for `O=c1ccc2ccccc2o1` [2H-chromen-2-one] here?
**A.** 9300 nM

**Q.** Which Ki does the source give for `CC[N+](C)(C)c1cccc(O)c1` [Edrophonium Chloride, 3] here?
**A.** 250 nM

target: Acetylcholinesterase (Homo sapiens, UniProt P22303); assay: Assay of Substrate Hydrolysis; details: pH 7; 25 °C
Experimental: as §1

Sequence of Acetylcholinesterase (Homo sapiens, UniProt P22303) (P22303 whole entry): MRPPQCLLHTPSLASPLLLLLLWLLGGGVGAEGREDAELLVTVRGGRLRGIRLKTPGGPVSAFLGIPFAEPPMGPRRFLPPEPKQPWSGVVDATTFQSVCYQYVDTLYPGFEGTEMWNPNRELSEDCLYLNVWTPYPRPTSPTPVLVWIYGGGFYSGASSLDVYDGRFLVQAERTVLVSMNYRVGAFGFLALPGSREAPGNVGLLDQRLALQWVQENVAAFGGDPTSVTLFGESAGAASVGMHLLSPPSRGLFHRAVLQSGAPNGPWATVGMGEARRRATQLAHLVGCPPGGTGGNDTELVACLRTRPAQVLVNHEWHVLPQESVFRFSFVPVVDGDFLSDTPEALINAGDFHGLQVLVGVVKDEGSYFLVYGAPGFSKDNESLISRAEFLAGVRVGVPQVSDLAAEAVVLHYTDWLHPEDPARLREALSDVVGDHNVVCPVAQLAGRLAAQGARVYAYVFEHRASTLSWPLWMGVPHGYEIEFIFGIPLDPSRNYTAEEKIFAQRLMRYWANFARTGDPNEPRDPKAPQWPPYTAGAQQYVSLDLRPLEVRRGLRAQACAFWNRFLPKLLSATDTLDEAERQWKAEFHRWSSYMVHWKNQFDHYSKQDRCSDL

**Q.** With `CCC1=C[C@@H]2Cc3nc4cc(Cl)ccc4c(N)c3[C@H](C1)C2` (racemic) [(1S)-7-chloro-15-ethyl-10-azatetracyclo[11.3.1.0^{2,11}.0^{4,9}]heptadeca-2(11),3,5,7,9,14-hexaen-3-amine] as the compound, how does the Ki read?
**A.** 0.026 nM

**Q.** With `C/C=C1\C2C=C(C)CC1(N)c1ccc(=O)[nH]c1C2` (stereo not drawn) [(+)-Huperzine A] as the compound, how does the Ki read?
**A.** 4.6 nM

**Q.** With `COc1cc(-c2cc3c(c(=O)o2)C[C@]2(O)[C@@]4(C)C(=O)C=CC(C)(C)[C@]4(O)CC[C@@]2(C)O3)cc(OC)c1OC` as the compound, how does the Ki read?
**A.** 1.7 nM

**Q.** For `Cc1cccc2c3c(ccc12)C1=C(C(=O)C3=O)[C@@H](C)CO1` [Dihydrotanshinone I], which Ki is on record?
**A.** 750 nM

**Q.** With `COc1cc2c(c3oc(=O)c4c(c13)CCC4=O)[C@@H]1C=CO[C@@H]1O2` [Aflatoxin B1] as the compound, how does the Ki read?
**A.** 28000 nM

**Q.** Which Ki does the source give for `Cc1ccc2c(c1)sc(-c1ccc(N(C)C)cc1)[n+]2C` [Thioflavin T, 1] here?
**A.** 1000 nM
